What was measured:
S. mutans OMZ 176 = assay: Inhibition of bacterial adhesion to plastic (polypropylene) tubes; details: 1 mg/ml, 4 h
A. viscosus OMZ 105 [1] = details: for Inhibition (%) of bacterial adhesion to plastic tubes: 1 mg/ml, 4 h; for Inhibitory effect on adhesion to plastic tubes (in words): preliminary tests
S. sanguis OMZ 9 = details: for Inhibition (%) of bacterial adhesion to plastic tubes: 1 mg/ml, 4 h; for Inhibitory effect on adhesion to plastic tubes (in words): preliminary tests
A. viscosus OMZ 105 [2] = system: A. viscosus OMZ 105
A. naeslundii ATCC 12104 = details: A. naeslundii ATCC 12104, no control of growth phase; desialylated human erythrocytes (A+); none = no inhibition up to 20 mg/ml

Polyglutamic acid
Inhibition (%) of bacterial adhesion to plastic tubes (S. mutans OMZ 176): 20% | Inhibition (%) of bacterial adhesion to plastic tubes (A. viscosus OMZ 105 [1]): 22% | Inhibition (%) of bacterial adhesion to plastic tubes (S. sanguis OMZ 9): 6%

Polylysine
Inhibition (%) of bacterial adhesion to plastic tubes (S. mutans OMZ 176): 30% | Inhibition (%) of bacterial adhesion to plastic tubes (A. viscosus OMZ 105 [1]): 46% | Inhibition (%) of bacterial adhesion to plastic tubes (S. sanguis OMZ 9): 12%

O=C[C@H](O)[C@@H](O)[C@H](O)[C@H](O)CO [glucose]
Inhibitory effect on adhesion to plastic tubes (in words) (A. viscosus OMZ 105 [1]): nonactivity | Inhibitory effect on adhesion to plastic tubes (in words) (S. sanguis OMZ 9): nonactivity

OC[C@H]1O[C@@H](O[C@H]2[C@H](O)[C@@H](O)C(O)O[C@@H]2CO)[C@H](O)[C@@H](O)[C@H]1O (some centres unmarked) [Lactose]
Minimum concentration resulting in complete inhibition of hemagglutination (A. viscosus OMZ 105 [2]; A. viscosus OMZ 105, no control of growth phase, desialylated human erythrocytes (A+), none = no inhibition up to 20 mg/ml): none | Concentration expressed in galactoside equivalents/ml (minimum concentration resulting in complete inhibition of hemagglutination) (A. viscosus OMZ 105 [2]; A. viscosus OMZ harvested in the exponential phase): > 10 mg/mL | Concentration expressed in dry weight/ml (minimum concentration resulting in complete inhibition of hemagglutination) (A. viscosus OMZ 105 [2]; A. viscosus OMZ harvested in the exponential phase, none = no inhibition up to 20 mg/ml): none | Minimum concentration resulting in complete inhibition of hemagglutination (A. naeslundii ATCC 12104): none

COC1OC(CO)C(O)C(O)C1O (stereo not drawn) [Methyl α annoside]
Inhibition (%) of bacterial adhesion to plastic tubes (S. mutans OMZ 176): 3% | Inhibition (%) of bacterial adhesion to plastic tubes (A. viscosus OMZ 105 [1]): 10% | Inhibition (%) of bacterial adhesion to plastic tubes (S. sanguis OMZ 9): 11%

NCC(=O)O [glycine]
Inhibitory effect on adhesion to plastic tubes (in words) (A. viscosus OMZ 105 [1]): nonactivity | Inhibitory effect on adhesion to plastic tubes (in words) (S. sanguis OMZ 9): nonactivity

From patent US4994441A, “Dental anti-plaque and anti-caries agent” (priority 1987, dated 1991)
